Laboratory results published in ChEMBL document CHEMBL3779823, “Structure of amyloid oligomers and their mechanisms of toxicities: Targeting amyloid oligomers using novel therapeutic approaches” (2016).

System: Mus musculus
Test: Reduction in Abeta oligomers levels in Tg2576 mouse administered for 4 weeks
Format: functional

In the case of `NS(=O)(=O)c1cc(C(=O)O)c(NCc2ccco2)cc1Cl` [FUROSEMIDE], the “inhibition (INH)” value is reported as 30%.
